Molecules are shown by their SMILES. pIC50: −log10 of the molar value.

The target of this experiment is p53-MDM2 interaction (GST-MDM2 protein aa 23-117 / biotinylated p53 wt peptide) (Homo sapiens (Human), UniProt Q00987). Kind of experiment: Mdm2-p53 Inhibition AlphaScreen. The class given is binding. To be noted: GST-MDM2 (aa 23-117) / biotinylated p53 wt peptide. The method, then: Mdm2-p53 Inhibition AlphaScreen
p53-MDM2 interaction (GST-MDM2 protein aa 23-117 / biotinylated p53 wt peptide), sequence (Q00987 23-117): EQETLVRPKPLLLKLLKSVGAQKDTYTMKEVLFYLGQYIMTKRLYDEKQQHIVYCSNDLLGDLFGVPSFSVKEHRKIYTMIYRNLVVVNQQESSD
15 μL of compound in 20% DMSO (serial pre-dilutions of compound are done in 100% DMSO) is pipetted to the wells of a white OptiPlate-96 (Perkin Elmer). A mix consisting of 20 nM GST-MDM2 protein (aa 23-117) and 20 nM biotinylated p53 wt peptide (encompassing aa 16-27 of wt human p53, amino acid sequence […]-Ttds-Lys-Biotin, molecular weight 2132.56 g/mol) is prepared in assay buffer (50 mM Tris/HCl pH 7.2; 120 mM NaCl; 0.1% bovine serum albumin (BSA); 5 mM dithiothreitol (DTT); 1 mM ethylenediaminetetraacetic acid (EDTA); 0.01% Tween 20). 30 μL of the mix is added to the compound dilutions and incubated for 15 min at rt while gently shaking the plate at 300 rounds per minute (rpm). Subsequently, 15 μL of premixed AlphaLISA Glutathione Acceptor Beads and AlphaScreen Streptavidin Donor Beads from PerkinElmer (in assay buffer at a concentration of 10 μg/mL each) are added and the samples are incubated for 30 min at rt in the dark (shaking 300 rpm). Afterwards, the signal is measured in a PerkinElmer Envision HIS Multilabel Reader using the AlphaScreen protocol from Perkin Elmer.
Each plate contains negative controls where biotinylated p53-peptide and GST-MDM2 are left out and replaced by assay buffer. Negative control values are entered as low basis value when using the software GraphPad Prism for calculations. Furthermore, a positive control (5% DMSO instead of test compound; with protein/peptide mix) is pipetted. Determination of IC50 values are carried out using GraphPad Prism 3.03 software (or updates thereof).
(Bead proximity is the source of the signal in Alpha formats.)
For `O=C(O)c1ccc2c(c1)nc1n2CC[C@H]2[C@@H]1[C@H](c1cccc(Cl)c1F)[C@]1(C(=O)Nc3nc(Cl)ccc31)N2CC1CC1` [Ib-171], the negative-log IC50 (pIC50) is 8.00. Under `CCOc1cccc(CN2[C@H]3CCn4c(nc5cc(C(=O)O)ccc54)[C@H]3[C@H](c3cccc(Cl)c3F)[C@]23C(=O)Nc2nc(Cl)ccc23)c1` [Ib-173] stands 8.15; under `O=C(O)c1ccc2c(c1)nc1n2C[C@H]2[C@@H]1[C@H](c1cccc(Cl)c1F)[C@]1(C(=O)Nc3cc(Cl)ccc31)N2CC1CC1` [Ib-175], 8.52. `O=C(O)c1ccc2c(c1)nc1n2C[C@H]2[C@@H]1[C@H](c1cccc(Cl)c1F)[C@]1(C(=O)Nc3cc(Cl)ccc31)N2CC1CC1` [Ib-176]: the pIC50 is 8.70. The compound `O=C(O)c1ccc2c(c1)nc1n2C[C@@H]2[C@H]1[C@@H](c1cccc(Cl)c1F)[C@@]1(C(=O)Nc3cc(Cl)ccc31)N2CC1CC1` [Ib-177] showed a pIC50 of 7.28. Under `O=C(O)c1ccc2nc3n(c2c1)C[C@H]1[C@@H]3[C@H](c2cccc(Cl)c2F)[C@]2(C(=O)Nc3cc(Cl)ccc32)N1CC1CC1` [Ib-178] stands 8.40. In the case of `O=C(O)c1ccc2nc3n(c2c1)C[C@H]1[C@@H]3[C@H](c2cccc(Cl)c2F)[C@]2(C(=O)Nc3cc(Cl)ccc32)N1CC1CC1` [Ib-179] it was 8.70; in that of `O=C(O)c1ccc2nc3n(c2c1)C[C@@H]1[C@H]3[C@@H](c2cccc(Cl)c2F)[C@@]2(C(=O)Nc3cc(Cl)ccc32)N1CC1CC1` [Ib-180], 7.08.

The compound `COCc1cccc(CN2[C@H]3Cn4c(nc5cc(C(=O)O)ccc54)[C@H]3[C@H](c3cccc(Cl)c3F)[C@]23C(=O)Nc2cc(Cl)ccc23)c1` [Ib-183] had a pIC50 of 8.52.

Turning to `COCc1cccc(CN2[C@H]3Cn4c(nc5cc(C(=O)O)ccc54)[C@H]3[C@H](c3cccc(Cl)c3F)[C@]23C(=O)Nc2cc(Cl)ccc23)c1` [Ib-184], the pIC50 is 8.70. Under `COCc1cccc(CN2[C@@H]3Cn4c(nc5cc(C(=O)O)ccc54)[C@@H]3[C@@H](c3cccc(Cl)c3F)[C@@]23C(=O)Nc2cc(Cl)ccc23)c1` [Ib-185] stands 7.85; under `COc1cccc(CCN2[C@H]3Cn4c(nc5cc(C(=O)O)ccc54)[C@H]3[C@H](c3cccc(Cl)c3F)[C@]23C(=O)Nc2cc(Cl)ccc23)c1` [Ib-186], 8.40; under `Cc1cc2c(cc1C(=O)O)nc1n2C[C@H]2[C@@H]1[C@H](c1cccc(Cl)c1F)[C@]1(C(=O)Nc3cc(Cl)ccc31)N2CC1CC1` [Ib-188], 8.52. Under `Cc1c(C(=O)O)ccc2c1nc1n2C[C@H]2[C@@H]1[C@H](c1cccc(Cl)c1F)[C@]1(C(=O)Nc3cc(Cl)ccc31)N2CC1CC1` [Ib-189] stands 8.52; under `Cc1c(C(=O)O)ccc2c1nc1n2C[C@H]2[C@@H]1[C@H](c1cccc(Cl)c1F)[C@]1(C(=O)Nc3cc(Cl)ccc31)N2CC1CC1` [Ib-190], 8.70; under `CCN1[C@H]2Cn3c(nc4cc(C(=O)O)c(C)cc43)[C@H]2[C@H](c2cccc(Cl)c2F)[C@]12C(=O)Nc1cc(Cl)ccc12` [Ib-191], 8.22. Take `O=C(O)c1ccc2c(nc3n2C[C@H]2[C@@H]3[C@H](c3cccc(Cl)c3F)[C@]3(C(=O)Nc4cc(Cl)ccc43)N2CC2CC2)c1C(F)(F)F` [Ib-193]: the pIC50 is 8.52.

Take `O=C(O)c1cc2nc3n(c2cc1C(F)(F)F)C[C@H]1[C@@H]3[C@H](c2cccc(Cl)c2F)[C@]2(C(=O)Nc3cc(Cl)ccc32)N1CC1CC1` [Ib-195]: the pIC50 is 8.22. Under `O=C(O)c1cc2nc3n(c2cc1OC(F)(F)F)C[C@H]1[C@@H]3[C@H](c2cccc(Cl)c2F)[C@]2(C(=O)Nc3cc(Cl)ccc32)N1CC1CC1` [Ib-197] stands 8.70; under `O=C(O)c1ccc2c(c1)nc1n2C[C@H]2[C@@H]1[C@H](c1cccc(Br)c1F)[C@]1(C(=O)Nc3cc(Cl)ccc31)N2CC1CC1` [Ib-198], 8.40. Under `O=C(O)c1ccc2c(c1)nc1n2C[C@H]2[C@@H]1[C@H](c1cc(Cl)cs1)[C@]1(C(=O)Nc3cc(Cl)ccc31)N2CC1CC1` [Ib-200] stands 8.52; under `O=C(O)c1ccc2c(c1)nc1n2C[C@H]2[C@@H]1[C@H](c1ccc(Cl)s1)[C@]1(C(=O)Nc3cc(Cl)ccc31)N2CC1CC1` [Ib-202], 8.15.

`Cc1c(C(=O)O)ccc2nc3n(c12)CC[C@H]1[C@@H]3[C@H](c2cccc(Cl)c2F)[C@]2(C(=O)Nc3cc(Cl)ccc32)N1CC1CC1` [Ib-204] showed a pIC50 of 8.70.

In the case of `Cc1cc(C(=O)O)cc2c1nc1n2CC[C@H]2[C@@H]1[C@H](c1cccc(Cl)c1F)[C@]1(C(=O)Nc3cc(Cl)ccc31)N2CC1CC1` [Ib-205], the pIC50 was 8.52. In the case of `Cc1c(C(=O)O)ccc2nc3n(c12)CC[C@H]1[C@@H]3[C@H](c2cccc(Cl)c2F)[C@]2(C(=O)Nc3cc(Cl)ccc32)N1CC1CC1` [Ib-206] it was 8.40. Under `Cc1c(C(=O)O)ccc2c1nc1n2CC[C@H]2[C@@H]1[C@H](c1ccnc(Cl)c1F)[C@]1(C(=O)Nc3cc(Cl)ccc31)N2CC1CC1` [Ib-207] stands 8.10; under `CNC(=O)c1ccc2c(c1)nc1n2CC[C@H]2[C@@H]1[C@H](c1cccc(Cl)c1F)[C@]1(C(=O)Nc3cc(Cl)ccc31)N2CC1CC1` [Ib-209], 8.52; under `NC(=O)c1ccc2c(c1)nc1n2CC[C@H]2[C@@H]1[C@H](c1cccc(Cl)c1F)[C@]1(C(=O)Nc3cc(Cl)ccc31)N2CC1CC1` [Ib-210], 8.40. `CN(C)C(=O)c1ccc2c(c1)nc1n2CC[C@H]2[C@@H]1[C@H](c1cccc(Cl)c1F)[C@]1(C(=O)Nc3cc(Cl)ccc31)N2CC1CC1` [Ib-211] had a pIC50 of 7.96. On to `O=C(NC1CC1)c1ccc2c(c1)nc1n2CC[C@H]2[C@@H]1[C@H](c1cccc(Cl)c1F)[C@]1(C(=O)Nc3cc(Cl)ccc31)N2CC1CC1` [Ib-212], for which the pIC50 is 8.30. In the case of `CC(C)(O)CNC(=O)c1ccc2c(c1)nc1n2CC[C@H]2[C@@H]1[C@H](c1cccc(Cl)c1F)[C@]1(C(=O)Nc3cc(Cl)ccc31)N2CC1CC1` [Ib-213] it was 8.15; in that of `O=C(NC(CO)CO)c1ccc2c(c1)nc1n2CC[C@H]2[C@@H]1[C@H](c1cccc(Cl)c1F)[C@]1(C(=O)Nc3cc(Cl)ccc31)N2CC1CC1` [Ib-214], 8.52. As to `O=C(NCCO)c1ccc2c(c1)nc1n2CC[C@H]2[C@@H]1[C@H](c1cccc(Cl)c1F)[C@]1(C(=O)Nc3cc(Cl)ccc31)N2CC1CC1` [Ib-215], the pIC50 was 8.40.

`COCCNC(=O)c1ccc2c(c1)nc1n2CC[C@H]2[C@@H]1[C@H](c1cccc(Cl)c1F)[C@]1(C(=O)Nc3cc(Cl)ccc31)N2CC1CC1` [Ib-216]: the pIC50 was 8.15.

`COCC(COC)NC(=O)c1ccc2c(c1)nc1n2CC[C@H]2[C@@H]1[C@H](c1cccc(Cl)c1F)[C@]1(C(=O)Nc3cc(Cl)ccc31)N2CC1CC1` [Ib-217] showed a pIC50 of 8.40. Under `O=C(NC(CO)(CO)CO)c1ccc2c(c1)nc1n2CC[C@H]2[C@@H]1[C@H](c1cccc(Cl)c1F)[C@]1(C(=O)Nc3cc(Cl)ccc31)N2CC1CC1` [Ib-218] stands 8.22; under `COCCOCCNC(=O)c1ccc2c(c1)nc1n2CC[C@H]2[C@@H]1[C@H](c1cccc(Cl)c1F)[C@]1(C(=O)Nc3cc(Cl)ccc31)N2CC1CC1` [Ib-219], 8.30; under `O=C(c1ccc2c(c1)nc1n2CC[C@H]2[C@@H]1[C@H](c1cccc(Cl)c1F)[C@]1(C(=O)Nc3cc(Cl)ccc31)N2CC1CC1)N1CCOCC1` [Ib-220], 8.00. Under `CN1CCN(C(=O)c2ccc3c(c2)nc2n3CC[C@H]3[C@@H]2[C@H](c2cccc(Cl)c2F)[C@]2(C(=O)Nc4cc(Cl)ccc42)N3CC2CC2)CC1` [Ib-221] stands 8.00. In turn, `NCCNC(=O)c1ccc2c(c1)nc1n2CC[C@H]2[C@@H]1[C@H](c1cccc(Cl)c1F)[C@]1(C(=O)Nc3cc(Cl)ccc31)N2CC1CC1` [Ib-222] showed a negative-log IC50 (pIC50) of 8.05. Under `CN(C)CCNC(=O)c1ccc2c(c1)nc1n2CC[C@H]2[C@@H]1[C@H](c1cccc(Cl)c1F)[C@]1(C(=O)Nc3cc(Cl)ccc31)N2CC1CC1` [Ib-223] stands 8.30; under `CC1(NC(=O)c2ccc3c(c2)nc2n3CC[C@H]3[C@@H]2[C@H](c2cccc(Cl)c2F)[C@]2(C(=O)Nc4cc(Cl)ccc42)N3CC2CC2)COC1` [Ib-225], 8.30; under `CC1(CNC(=O)c2ccc3c(c2)nc2n3CC[C@H]3[C@@H]2[C@H](c2cccc(Cl)c2F)[C@]2(C(=O)Nc4cc(Cl)ccc42)N3CC2CC2)COC1` [Ib-226], 8.30. Under `O=C(c1ccc2c(c1)nc1n2CC[C@H]2[C@@H]1[C@H](c1cccc(Cl)c1F)[C@]1(C(=O)Nc3cc(Cl)ccc31)N2CC1CC1)N1CC(O)C1` [Ib-227] stands 8.40; under `CN1CC(NC(=O)c2ccc3c(c2)nc2n3CC[C@H]3[C@@H]2[C@H](c2cccc(Cl)c2F)[C@]2(C(=O)Nc4cc(Cl)ccc42)N3CC2CC2)C1` [Ib-228], 8.30; under `O=C(NC1COCC1O)c1ccc2c(c1)nc1n2CC[C@H]2[C@@H]1[C@H](c1cccc(Cl)c1F)[C@]1(C(=O)Nc3cc(Cl)ccc31)N2CC1CC1` (stereo partly shown) [Ib-229], 8.40.

As usually defined, the pIC50 is the IC50 on a negative log10 scale, so that one unit is a factor of ten.

For the origin of these results see US10717742B2, “Spiro[3H-indole-3,2′-pyrrolidin]-2(1H)-one compounds and derivatives as MDM2-P53 inhibitors” (Boehringer Ingelheim International GmbH, priority 2015, dated 2020).
